Here are results for four compounds from patent publication US20040157910A1, “Method of treatment or prophylaxis” (SmithKline Beecham Corporation, priority 2003, published 2004).

For experiment [1], the system named is Restless Legs Syndrome. As to conditions: RLS; well controlled studies prior to 1987; cited from earlier work.
Experiment [2] deals with Restless Legs Syndrome. As to conditions: RLS, cited from earlier work.
The test system of experiment [3] is Restless Legs Syndrome. Put plainly: RLS patients treated with ropinirole (patient reports). The experiment is classed as in vivo, human. The settings on record: almost at once.

Each structure is given as a SMILES string. Structures can show the parent of a compound that is named as a salt.

For `NC(=O)N1c2ccccc2C=Cc2ccccc21` [carbamazepine], the “efficacy compared with placebo” value in the experiment with Restless Legs Syndrome [1] is given as “superior to placebos”.

Take `O=C1CN=C(c2ccccc2Cl)c2cc([N+](=O)[O-])ccc2N1` [clonazepam]: the “efficacy compared with placebo” value in the experiment on Restless Legs Syndrome [1] was “superior to placebos”.

Take `N[C@@H](Cc1ccc(O)c(O)c1)C(=O)O` [L-dopa]: the “time for which the effect has been maintained” value in the experiment on Restless Legs Syndrome [2] (L-dopa) is 2 years. Further, in the experiment on Restless Legs Syndrome [2] (doses of L-dopa of 100 mg to 200 mg), the “patients in whom treatment was effective” value was 70 % of patients.

Regarding `CCCN(CCC)CCc1cccc2c1CC(=O)N2` [ropinirole, 4-[2-(di-n-propylamino)ethyl]-1,3-dihydro-2H-indolin-2-one hydrochloride], in the experiment with Restless Legs Syndrome [3], the “improvement in condition reported by RLS patients” value is recorded as “dramatic improvement”.
